Measurements: US12665203B2, “Organo-metallic analytes for nonaqueous redox flow batteries” (The Regents of the University of California, priority 2020, dated 2026)
Where two headings read alike, the source gives them in different places.

Columns and labels:
[1] = symmetric NRFB, cited from earlier work
[2] = Cyclic voltammetry: redox potentials, diffusion coefficients, electron-transfer rate constants; type: physicochemical; details: for D0: calculated using eq 2 (Randles-Sevcik); for D0 / k0: GC electrode; for k0: calculated using eq 4 (Nicholson method)
Description: These redox events correspond to the 2b^+/2b couple at +0.08 V, the 2b/2b^− couple at −0.20 V, the 2b^−/2b^2− couple at −0.90 V, and the 2b^2−/2b^3− couple at −1.38 V vs SCE.
The mass transport and electrokinetics of 2b were also evaluated because a RFB analyte must have fast diffusion kinetics (D) and heterogeneous electron-transfer rate (k0) to have a high rate capability. Roughly, k0 of 10^−5 cm/s is considered a minimum requirement, and this minimum requirement is met by most of the recently studied NRFB analytes. The rate is also dependent on the electrode material, and is generally orders of magnitude higher when using Hg, Pt, or Au electrodes. For this reason, kinetic parameters were probed using a glass carbon (GC) button electrode. CV's were recorded of 2b at varying scan rates, and the D values were determined by plotting the current density versus the square root of the scan rate (FIGS. 6A-C). From the slope of the linear fit of this line and the Randles-Sevcik equation (see equations below), D for each redox couple was obtained (eq. 2). Plots of the inverse of the square root of the scan rate versus the transfer parameter (ψ), extracted from the peak to peak separation (ΔEp), were also constructed, so that k0 could be calculated using the Nicholson method (TABLE 5, eq 3-4). For each redox couple D is on the order of 10^−6 cm^2/s, and k0 is on the order of 10^−3 cm/s (TABLE 5).
All potentials are referenced to the SCE couple, and ferrocene was used as an external standard where the E/of ferrocene/ferrocenium is +0.40 V vs. SCE in 0.1 M Bu4NPF6MeCN. Bu4NPF6 was recrystallized from ethanol and placed under vacuum for 72 hours before electrolyte solutions were made. Electrolyte solutions were stored over 3 Å molecular sieves for at least 48 hours before use. Sieves were activated by heating under vacuum at 270° C. for at least 72 hours. UV-Vis spectra were obtained using a 1 cm cuvette using an Agilent 8453 UV-vis spectrophotometer.
The diffusion coefficients for each redox couple were determined by first plotting CV's of 2b at varying scan rates (0.2-8 V/s) (FIG. 10). The diffusion coefficients were then determined from the slope of the peak current density (jp) versus the square root of the scan rate (υ^1/2):
[…], transfer parameter (ψ) was calculated by obtaining the peak to peak separation of each redox couple (ΔEp), at varying scan rates (0.2-8 V/s) (FIG. 10):
[formula] The electron transfer rate constant (k0) was then extracted from the slope of a plot of versus υ^1/2 (FIG. 10):
[formula] where n is the number of electrons transferred, F is the Faraday constant (96485 Cmol^−1), D is the averaged diffusion coefficient for the oxidation and reduction reaction (DO and DR) (cm^2/s), υ is the scan rate (V/s), R is the ideal gas constant (8.314 J/mol-K) and T is the temperature (K). Calculation 4.

[3] = as above; type: physicochemical
[4] = Working electrode screen, extended cycling; details: GC electrodes, 100 cycles
Description: Potential working electrodes for the NRFB cell tests were also screened. GC, reticulated vitreous carbon (RVC, 20, 80 and 100 PPI), graphite rods, and carbon felt which are all commonly employed as working electrodes in NRFB applications were examined.

[5] = Charging/discharging, asymmetric H-cell, anion exchange membrane separator
Description: Complex 2b was also tested as an analyte in an asymmetric cell configuration because this allowed us to achieve a cell design where up to four electrons are stored during each charge and discharge cycle. Using an AEM as separator, potentials and currents were initially chosen to maximize the energy density of the cell: storing 4 electrons in the battery. Over 10 cycles and 45 h, a Coulombic efficiency of 98% was observed (FIGS. 17A-C). […] An asymmetric cell with 2b functioning as a four-electron analyte could be revisited as AEM technology is refined.
Charge-discharge studies were performed inside of a glovebox under an inert atmosphere using a CH Instruments Electrochemical Analyzer Model 1400. The custom H-cell was designed by Adams and Chittenden (FIGS. 21A-B and 22) with compartments separated by an AMI-7001S Anion exchange membrane (Membrane International Inc.) or glass frit. If a membrane was used, it was soaked in 0.5 M nBu4NBF4MeCN electrolyte solution for 48 h prior to use. […] In the asymmetric studies, the counter compartment contained only 3.5 mL 0.5 M nBu4NBF4MeCN electrolyte solution, and an isomolded graphite rod counter electrode. […]

[6] = Charging/discharging, symmetric NRFB H-cell, glass frit separator; details: after three weeks of charging/discharging
Description: Complex 2b was tested in both symmetric and asymmetric NRFB configurations and in both cases, an anion exchange membrane (AEM), and a glass frit as separator between the working electrode and counter electrode compartments were trialed. […] A current of 0.2 mA for the charge and 0.2 mA for the discharge were chosen as described below. Two consecutive plateaus are observed for each charging and discharging process, indicative of two electron transfer processes (FIGS. 12A-B and 13).
The first plateau at −0.97 V is determined by the oxidation of 2b^− to 2b in the cathodic compartment, and the concurrent reduction of 2b^− to 2b^2− in the anodic compartment. The second plateau at −0.21 V is determined by the oxidation of 2b to 2b^+ in the cathodic compartment, with concurrent reduction of 2b^2− to 2b^3− in the anodic compartment. Upon discharge, the reduction of 2b^+ to 2b and 2b to 2b^− in the cathodic compartment results in a small potential drop, with discharging plateaus of −0.98 and −0.24 V, respectively.
Charge-discharge studies were performed inside of a glovebox under an inert atmosphere using a CH Instruments Electrochemical Analyzer Model 1400. The custom H-cell was designed by Adams and Chittenden (FIGS. 21A-B and 22) with compartments separated by an AMI-7001S Anion exchange membrane (Membrane International Inc.) or glass frit. […]

COCCOCCOCCNc1ccc(NCCOCCOCCOC)c2c1C(=O)c1ccccc1C2=O [(Me-TEG)2DAAQ]
Cactive ([1]; solvent DME): 1000 mM

C1=Cc2nc1c(-c1ccccc1)c1ccc([nH]1)c(-c1ccccc1)c1nc(c(-c3ccccc3)c3ccc([nH]3)c2-c2ccccc2)C=C1 [H2TPP]
Cactive ([1]; solvent CH2Cl2): 10 mM

[(I2P^−)2Al][OTf] [2b]
E1/2 ([2]; couple 2b^0/1−): −1.08 V vs SCE | D0 ([2]; couple 2b^0/1−): 6.3 (5.5) 10^−6 cm^2/s | k0 ([2]; couple 2b^0/1−): 13 ± 2.7 × 10^−3 cm/s | E1/2 ([2]; couple 2b^1+/0): −0.30 V vs SCE | D0 ([2]; couple 2b^1+/0): 5.1 (4.9) 10^−6 cm^2/s | k0 ([2]; couple 2b^1+/0): 8.9 ± 1.2 × 10^−3 cm/s | E1/2 ([2]; couple 2b^1−/2−): −1.51 V vs SCE | D0 ([2]; couple 2b^1−/2−): 9.9 (4.6) 10^−6 cm^2/s | k0 ([2]; couple 2b^1−/2−): 10 ± 2.1 × 10^−3 cm/s | D0 ([2]; couple 2b^2+/1+): 4.7 (6.8) 10^−6 cm^2/s | k0 ([2]; couple 2b^2+/1+): 8.1 ± 1.7 × 10^−3 cm/s | D, order of magnitude ([2]; each redox couple): ~10^−6 cm^2/s | k0, order of magnitude ([2]; each redox couple): ~10^−3 cm/s | redox potential, 2b/2b^− couple ([3]; CV, 0.5 M Bu4NBF4 MeCN): −0.20 V vs SCE | redox potential, 2b^2−/2b^3− couple ([3]; CV, 0.5 M Bu4NBF4 MeCN): −1.38 V vs SCE | redox potential, 2b^+/2b couple ([3]; CV, 0.5 M Bu4NBF4 MeCN): +0.08 V vs SCE | redox potential, 2b^−/2b^2− couple ([3]; CV, 0.5 M Bu4NBF4 MeCN): −0.90 V vs SCE | E1/2 ([3]; couple 2b^2+/1+): 0.06 V vs SCE | stability of analyte remaining in solution [4]: stable to extended cycling in solution | degradation of the analyte ([5]; asymmetric NRFB configuration, multiple cycles, separator not stated): no degradation of the analyte | decomposition of the analyte ([5]; asymmetric cell, AEM, after 45 h): Decomposition of the analyte was observed | degradation of analyte [6]: Partial degradation

[bpy(COOMe)2]3Cr
Cactive ([1]; solvent MeCN): 210 mM

phthalocyanine Mn-nitride [PcMnN]
Cactive ([1]; solvent MeCN): 1 mM
